US5162304A, “Pharmaceutical compositions and methods for treatment and prophylaxis of cancer” (priority 1990, dated 1992)

Legend:
[1] = system: Ehrlich's mouse ascites carcinoma cells; experiment: Test 7 and Comparing Tests 3 and 4: survival of mice inoculated with Ehrlich's mouse ascites carcinoma cells; type: in vivo, male C57BL/6 mice; conditions: bleomycin alone; for Number of surviving mice: of 8
Protocol: 5-week old male C57BL/6 mice were intraperitoneally inoculated with 10^6 Ehrlich's mouse ascites carcinoma cells. Since 24 hours later, a 50 μg/ml solution of bleomycin in 0.25% HCO-60 solution in physiological saline, and a suspension containing 50 μg/ml of bleomycin and 5 μg/ml of 14-methyl-1-pentadecanol were intraperitoneally injected at a dose of 10 mg/kg·day and 11 mg/kg·day, respectively, to each 8 animals/group for 5 days. The survival time of the injected mice was then followed.

[2] = system: human lung carcinoma A549 cells; experiment: Tests 4, 5 and Comparing Test 1: cytocidal activity of bleomycin alone or with isomonool, A549 cells; type: cell-based
Protocol: (§1) The cytocidal activity (IC90) of bleomycin was evaluated when used alone or used in combination with 14-methyl-1-pentadecanol or 14-methyl-1-hexadecanol, using Ehrlich's mouse ascites carcinoma cells and human lung tumor A549 cells.

[3] = system: Ehrlich's ascites cells; experiment: Test 6 and Comparing Test 2: uptake of bleomycin into Ehrlich's ascites cells; type: cell-based, mouse; conditions: bleomycin alone
[4] = system: Ehrlich's mouse ascites carcinoma cells; experiment: Tests 4, 5 and Comparing Test 1: cytocidal activity of bleomycin alone or with isomonool, Ehrlich's cells; type: cell-based
Protocol: as §1

bleomycin [reference compound]
mean survival time after inoculation ([1]; i.p., 10 mg/kg.day for 5 days (Comparing test 3)): 33.3 days | Number of surviving mice ([1]; day 14): 7 | Number of surviving mice ([1]; day 15): 6 | Number of surviving mice ([1]; day 16): 6 | Number of surviving mice ([1]; day 17): 6 | Number of surviving mice ([1]; day 18): 6 | Number of surviving mice ([1]; day 19): 6 | Number of surviving mice ([1]; day 20): 6 | Number of surviving mice ([1]; day 23): 4 | Number of surviving mice ([1]; day 33): 3 | Number of surviving mice ([1]; day 41): 2 | Number of surviving mice ([1]; day 45): 2 | Number of surviving mice ([1]; day 52): 2 | Number of surviving mice ([1]; day 57): 1 | Number of surviving mice ([1]; day 60): 1 | Cytocidal activity (IC90) of bleomycin alone [2]: 44 µg/mL | Bleomycin uptake ([3]; 30 min): 0.03 μg/mg Ehrlich's cell | Bleomycin uptake ([3]; 60 min): 0.06 μg/mg Ehrlich's cell | Bleomycin uptake ([3]; 120 min): 0.12 μg/mg Ehrlich's cell | Bleomycin uptake ([3]; 180 min): 0.13 μg/mg Ehrlich's cell | Bleomycin uptake ([3]; Initial): 0 μg/mg Ehrlich's cell | Cytocidal activity (IC90) of bleomycin alone [4]: 20 µg/mL
